The results in this text go back to patent publication US11712425B2, “Immunoregulatory role of 3-OH-kynurenamine and uses thereof” (ALBERT EINSTEIN COLLEGE OF MEDICINE, priority 2018, dated 2023).

The test system of one data set is dendritic cells. Put plainly: Quantitative proteomics of dendritic cells treated with 3-OH-kynurenamine. Type of data set: cell-based.
Data set [1] deals with nephrotoxic nephritis (NTN). Put plainly: Nephrotoxic nephritis (NTN) model. Type of data set: in vivo, 129/Sv mice. The conditions noted are these: daily intraperitoneal 50 mg/kg from day +4 until day +12. Here is the method:
FIG. 6A-6F. […] Ten week old female 129/Sv mice were immunized intraperitoneally with rabbit IgG in complete Freund's adjuvant (day 0). Five days later, mice received an intravenous injection of 90 ul of pre-formed rabbit anti-mouse glomerular basement membrane antibodies (N-Ab) or PBS. Starting at day +4, mice started receiving daily intraperitoneal injections of 50 mg/kg of 3-OH-kynurenamine (n=6) or vehicle control (n=8) until sacrifice on day +12. A) Proteinuria levels determined at sacrifice by uristix. B) % of mice in each group at sacrifice that reached the predetermined cut-off value for severe proteinuria of >300 mg/dl. C) Blood Urea Nitrogen levels determined at sacrifice. D) % of mice in each group that reach pre-specified humane end points for sacrifice (>300 mg/dl on two consecutive days, a single value of >2000 mg/dl, or poor general well being. E and F) All groups of mice developed similar titers of E) antirabbit injected Ab and F) anti-GBM Ab. […] (*p<0.05, **p<0.01).
Biological Role of 3-OH-Kynurenamine. Trp metabolites are known to exert several functions in immune cells. In dendritic cells, either cDCs or pDCs, incubation with L-kynurenine and/or 3-OH-anthranilic acid induces IDO1 expression and production of immunosuppressive TGF-β production. […]

The test system of a further data set is Psoriasis model. The data set is described as follows: Imiquimod-induced psoriasis model. Type of data set: in vivo, mice. As to conditions: Imiquimod 7 days, 50 mg/kg ip for 7 days. Here is the method:
FIG. 5A-5B. […] Some of the mice were also treated with 3-OH-Kynurenamine (50 mg/kg ip; for 7 days). Controls are mice that were shaved but left untreated; Imiquimod and Imiquimod plus 3-OH-Kynurenamine refers to the specific treatments. After 7 days mice were sacrificed and skin processed for H&E staining.
(§1) Biological Role of 3-OH-Kynurenamine. Trp metabolites are known to exert several functions in immune cells. In dendritic cells, either cDCs or pDCs, incubation with L-kynurenine and/or 3-OH-anthranilic acid induces IDO1 expression and production of immunosuppressive TGF-β production. In turn, cDCs and pDCs conditioned with these Trp catabolites increase differentiation of T lymphocytes into Treg cells in vitro and, when administered in vivo, induce antigen-specific T cell tolerance.

In data set [2] the test system is antigen-specific delayed-type hypersensitivity. Put plainly: In vivo suppressive activity of conditioned DCs (delayed-type hypersensitivity, footpad skin test). Details: species or system mice. As to conditions: cDCs conditioned 24 hr with 30 μM, pulsed with IGRP peptide; skin reactivity at 15 days. The protocol: FIG. 4A-4B. […] B) In vivo suppressive activity of CD8^− DCs, pulsed with the IGRP peptide (an autoantigen in autoimmune diabetes), in combination with a minority fraction (5%) of CD8^− DCs either untreated (Unt) or pretreated with 30 μM 3-OH-kynurenamine for 24 h and pulsed with the same peptide prior in vivo administration; analysis of skin reactivity of recipient mice to the eliciting peptide at 15 days is presented as change in footpad weight. ***P<0.001 (mean weight of experimental versus control footpads, i.e., injected with vehicle alone). Results are presented as fold induction±SD of triplicate experiments.
as §1

Another data set relates to NFκB pathway. Put plainly: Western blot of NFκB pathway in DCs. It counts as cell-based. As to conditions: 3 independent experiments.
In a further data set the test system is cDCs. The data set is described as follows: Gene expression by RT-PCR in conditioned cDCs. It counts as cell-based, mouse. The conditions noted are these: cDCs from spleens of C57BL/6 mice, 30 μM, after 2-6 hr. Here is the method:
FIG. 3A-3D. 3-OH-kynurenamine confers immunosuppressive properties on DCs. […] Analysis (B) was calculated from 3 independent experiments. C and D) mouse cDCs (C) and human PBMCs (D). After incubation with 30 (C) or 2 (D) μM kynurenines, gene expression was evaluated by RT-PCR at 6− (C) or 6 and 18 (D) h. Data were normalized to GAPDH expression and presented relative to results in untreated cells (dotted line, one-fold). Mean fold induction+SD of triplicate experiments.
as §1

The next data set deals with T1, AhR (Mus musculus, UniProt P30561).
T1 construct: mouse embryonic fibroblasts (MEFs) constitutively expressing AhR; endogenous in cells; host or cells: mouse embryonic fibroblasts (MEFs)
T1 sequence (P30561 10-848): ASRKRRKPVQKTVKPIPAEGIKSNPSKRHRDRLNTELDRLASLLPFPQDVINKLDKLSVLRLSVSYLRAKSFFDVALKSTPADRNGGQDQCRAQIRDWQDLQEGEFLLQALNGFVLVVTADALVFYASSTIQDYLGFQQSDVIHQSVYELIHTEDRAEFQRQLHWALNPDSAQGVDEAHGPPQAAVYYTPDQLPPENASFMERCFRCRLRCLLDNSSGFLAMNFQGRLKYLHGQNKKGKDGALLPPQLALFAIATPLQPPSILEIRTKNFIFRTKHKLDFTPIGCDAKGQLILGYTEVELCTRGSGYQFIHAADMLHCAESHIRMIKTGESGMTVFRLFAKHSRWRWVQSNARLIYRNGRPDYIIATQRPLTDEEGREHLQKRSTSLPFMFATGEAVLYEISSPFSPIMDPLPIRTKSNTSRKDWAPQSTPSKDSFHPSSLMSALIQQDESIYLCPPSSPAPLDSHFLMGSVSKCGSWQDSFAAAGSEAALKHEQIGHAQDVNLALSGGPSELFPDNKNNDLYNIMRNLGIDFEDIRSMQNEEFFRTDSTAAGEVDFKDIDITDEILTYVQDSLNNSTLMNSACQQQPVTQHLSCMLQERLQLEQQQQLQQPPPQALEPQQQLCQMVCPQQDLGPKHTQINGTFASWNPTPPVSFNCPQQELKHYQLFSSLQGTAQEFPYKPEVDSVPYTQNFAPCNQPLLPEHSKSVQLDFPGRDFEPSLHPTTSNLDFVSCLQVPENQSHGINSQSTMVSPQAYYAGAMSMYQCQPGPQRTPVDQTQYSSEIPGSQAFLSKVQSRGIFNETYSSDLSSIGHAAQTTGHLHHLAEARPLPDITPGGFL
Put plainly: AhR luciferase reporter (Cyp1a1 promoter) in mouse embryonic fibroblasts. It counts as cell-based. The conditions noted are these: for AhR activation (luciferase reporter): MEFs constitutively expressing AhR, stimulated 24 hours, different concentrations. The protocol: Cells were either untreated or stimulated for 24 hours with different concentrations of 3-OH-kynurenamine and, as positive control, L-kynurenine, the known AhR agonist.

Data set [3] has as its target T2, aromatic L-amino acid decarboxylase (AADC) (Homo sapiens, UniProt P20711).
T2 construct: full-length recombinant AADC was incubaled with 3-OH-kynurenine
T2 sequence (P20711 1-480): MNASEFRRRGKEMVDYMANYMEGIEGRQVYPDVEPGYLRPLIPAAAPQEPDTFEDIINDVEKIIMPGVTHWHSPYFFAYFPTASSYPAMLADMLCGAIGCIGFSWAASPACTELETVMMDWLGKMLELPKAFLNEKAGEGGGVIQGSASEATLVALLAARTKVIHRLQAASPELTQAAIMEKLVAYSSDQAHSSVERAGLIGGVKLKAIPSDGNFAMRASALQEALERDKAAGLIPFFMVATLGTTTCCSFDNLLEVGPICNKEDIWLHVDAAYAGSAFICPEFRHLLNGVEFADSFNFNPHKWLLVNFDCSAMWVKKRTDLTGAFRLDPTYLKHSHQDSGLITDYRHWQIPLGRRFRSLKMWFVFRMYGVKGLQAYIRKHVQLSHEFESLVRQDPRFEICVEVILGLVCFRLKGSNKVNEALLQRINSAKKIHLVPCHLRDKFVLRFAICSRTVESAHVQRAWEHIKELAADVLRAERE
Put plainly: Decarboxylation by recombinant AADC. Type of data set: biochemical. The conditions noted are these: enzyme plus PLP, monitored over 40 min, CO2 production. Here is the method: FIG. 2. […] Tryptophan, a natural substrate for aromatic L-amino acid decarboxylase (AADC) was incubated with the enzyme and the PLP catalyst. In a separate reaction 3-OH-kynurenine was incubated under the same experimental conditions. Reactions were monitored over a 40 min. period. […] One of a triplicate experiment is shown.
As a next step, to determine whether AADC is the natural enzyme processing 3-OH-L-kynurenine into 3-OH-kynurenamine, full-length recombinant AADC was incubaled with 3-OH-kynurenine and its conversion to 3-OH-kynurenamine was followed by detecting CO2 production due to decarboxylation.

“Also recorded” adds a separate entry of the source.

In the case of `NCCC(=O)c1cccc(O)c1N` [3-OH-kynurenamine], the “NF-κB inhibitor IKB level (quantitative proteomic)” value in the data set with dendritic cells (cDC, 20 μM, 24 hr, IFNγ/3-OH-kynurenamine vs IFNγ control) is recorded as “up-regulation of the NF-κB inhibitor IKB”. The “MS1 quantification of immunological relevant proteins” value with dendritic cells (dendritic cells, media supplemented with 3-OH-Kynurenamine vs media alone) is recorded as “down-regulated”. Besides, in data set [1], the “nephrotoxic nephritis / kidney damage (proteinuria, overall animal survival)” value is on record as “attenuates nephrotoxic nephritis (NTN)”. For the same compound, the “nephrotoxic nephritis / kidney damage (proteinuria, overall animal survival)” value in data set [1] (listed as 3-OH-Kynurenamine) is reported as “decrease”. Also, in the data set on Psoriasis model (50 mg/kg), the “skin inflammation / clinical and histological manifestation of psoriasis” value was “decreases clinical and histological manifestation of psoriasis; also recorded: decrease skin inflammation”. For the same compound, in the data set with Psoriasis model (H&E staining), the epidermis hyperplasia result is reported as “statistically significant lower levels”; the ortho and parakeratosis result is given as “statistically significant lower levels”; the rete ridges formation entry is on record as “statistically significant lower levels”. The “antigen-specific delayed-type hypersensitivity induced by immunostimulatory cDCs” value in data set [2] was “suppressed antigen-specific delayed-type hypersensitivity”. The “NFκB pathway (Western blot, densitometry)” value in the data set on NFκB pathway was “downregulation of the NFκB pathway”. Moreover, in the data set on cDCs, the Tgfbl transcripts result is recorded as “significantly upregulates” and the idol transcripts result is “significantly upregulates”. Also, the “AhR activation (luciferase reporter)” value at AhR is listed as “induced a concentration-dependent AhR activation”. For the same compound, the “AhR activation relative to L-kynurenine” value on AhR (MEFs, 24 hours) is “around 6.5 times”.
For `Nc1c(O)cccc1C(=O)C[C@H](N)C(=O)O` [3-OH-kynurenine], the “conversion (decarboxylation) by AADC” value in data set [3] is “converted to 3-OH-kynurenamine; also recorded: AADC was capable of inducing 3-OH-kynurenine decarboxylation”.
As for `Nc1ccccc1C(=O)C[C@H](N)C(=O)O` [L-kynurenine, reference compound], the “AhR activation (luciferase reporter)” value at AhR is given as “activated AhR in a concentration-dependent manner”.
Turning to `N[C@@H](Cc1c[nH]c2ccccc12)C(=O)O` [Trp, Tryptophan], the “conversion (decarboxylation) by AADC” value in data set [3] is listed as “converted to Tryptamine”.
